Entries after “also recorded” stand apart in the source; their conditions may differ.
Columns and labels:
[1] = system: C. neoformans serotype D strains JEC21 and B3501 and their deletion mutants; assay: Antifungal drug sensitivity test: serially diluted cells spotted on YPD agar containing the drug; format: cell-based, Cryptococcus neoformans
Procedure: (§1) Each strain was incubated overnight at 30° C. in YPD medium, washed, serially diluted (1 to 10^4 dilutions) in dH2O, and spotted (3 μl) onto solid YPD medium containing indicated concentrations of stress-inducing agents or antifungal drugs as previously described in “Bahn Y S, Kojima K, Cox G M, Heitman J (2005) Mol Biol Cell 16: 2285-2300.” and “Bahn Y S, Kojima K, Cox G M, Heitman J (2006) Mol Biol Cell 17: 3122-3135”. To examine antifungal drug sensitivity, the cells were spotted on agar-solid YPD media containing amphotericin B (Sigma), fluconazole (Sigma), itraconazole (Sigma), ketoconazole (Sigma) and fludioxonil. Then spotted cells were incubated at 30° C. for 2-4 days and photographed.

[2] = system: C. neoformans serotype A H99 strain and its deletion mutants; assay: as above; format: cell-based, Cryptococcus neoformans; conditions: for drug sensitivity of hog1Δ mutant compared to WT / drug sensitivity of pbs2Δ mutant compared to WT / drug sensitivity of skn7Δ mutant compared to WT / drug sensitivity of ssk1Δ mutant compared to WT / drug sensitivity of ssk2Δ mutant compared to WT / drug sensitivity of tco2Δ mutant compared to WT: YPD agar, 30° C., 72 h
Procedure: as §1

## C[C@@H]1[C@H](O)[C@@H](C)/C=C/C=C/C=C/C=C/C=C/C=C/C=C/[C@H](O[C@@H]2O[C@H](C)[C@@H](O)[C@H](N)[C@@H]2O)C[C@@H]2O[C@](O)(C[C@@H](O)C[C@@H](O)[C@H](O)CC[C@@H](O)C[C@@H](O)CC(=O)O[C@H]1C)C[C@H](O)[C@H]2C(=O)O [amphotericin B]
[1]; B3501 (Hog1 constitutively phosphorylated)
  drug resistance of B3501 strain compared to JEC21: higher resistance
[1]; JEC21 (Hog1 not constitutively phosphorylated), compared with ssk2Δ mutant in H99 background
  drug sensitivity of JEC21 strain: hypersensitivity
[1]; hog1Δ in JEC21
  effect of HOG1 mutation on drug sensitivity in JEC21 background: did not affect sensitivity
[1]; pbs2Δ in JEC21
  effect of PBS2 mutation on drug sensitivity in JEC21 background: did not affect sensitivity
[1]; ssk2Δ in B3501
  effect of SSK2 mutation on drug sensitivity in B3501 background: increased the amphotericin B sensitivity
[1]; ssk2Δ in JEC21
  effect of SSK2 mutation on drug sensitivity in JEC21 background: did not affect sensitivity
[2]; aca1Δ, H99 background
  drug sensitivity of aca1Δ mutant compared to WT: slightly higher AmpB susceptibility
[2]; H99 background
  drug sensitivity of cac1Δ mutant compared to WT: hypersensitive
  drug sensitivity of gpa1Δ mutant compared to WT: hypersensitive
  drug sensitivity of hog1Δ mutant compared to WT: dramatic hypersensitivity
  drug sensitivity of pbs2Δ mutant compared to WT: dramatic hypersensitivity
  drug sensitivity of pka1Δ mutant compared to WT: hypersensitive
  drug sensitivity of skn7Δ mutant compared to WT: WT-levels of resistance
  drug sensitivity of ssk1Δ mutant compared to WT: dramatic hypersensitivity
  drug sensitivity of ssk2Δ mutant compared to WT: dramatic hypersensitivity
  drug sensitivity of tco2Δ mutant compared to WT: hypersensitivity
[2]; H99 background, listed as AmpB
  drug sensitivity of cac1Δ mutant compared to WT: much higher AmpB-sensitivity
  drug sensitivity of gpa1Δ mutant compared to WT: much higher AmpB-sensitivity
  drug sensitivity of pka1Δ mutant compared to WT: increased susceptibility
[2]; ena1Δ
  drug sensitivity of ena1Δ mutant: did not show high sensitivity
[2]; ena1Δ nha1Δ
  drug sensitivity of ena1Δ nha1Δ double mutant: considerably increased sensitivity
[2]; compared to single mutants
  drug sensitivity of hog1Δ cac1Δ double mutant: even more sensitive
[2]; hog1Δ pka1Δ, compared to single mutants
  drug sensitivity of hog1Δ pka1Δ double mutant: even more sensitive
[2]; hsp12Δ, H99 background
  drug sensitivity of hsp12Δ mutant compared to WT: slightly higher susceptibility
[2]; hsp122Δ, H99 background
  drug sensitivity of hsp122Δ mutant compared to WT: slightly higher susceptibility
[2]; nha1Δ
  drug sensitivity of nha1Δ mutant: did not show high sensitivity
[2]; compared to each single mutant
  drug sensitivity of ras1Δ aca1Δ double mutant: hypersensitive
[2]; compared to each single mutant, listed as AmpB
  drug sensitivity of ras1Δ aca1Δ double mutant: higher AmpB-sensitivity than each single mutant
[2]; ras1Δ cac1Δ, compared to each single mutant
  drug sensitivity of ras1Δ cac1Δ double mutant: even higher AmpB susceptibility than each single mutant
[2]; ras1Δ, H99 background
  drug sensitivity of ras1Δ mutant compared to WT: higher susceptibility
[2]; ras2Δ, H99 background
  drug sensitivity of ras2Δ mutant compared to WT: slightly more sensitive

## OC(Cn1cncn1)(Cn1cncn1)c1ccc(F)cc1F [fluconazole]
[2]; H99 background
  drug sensitivity of cac1Δ mutant compared to WT: nearly as resistant
  drug sensitivity of gpa1Δ mutant compared to WT: nearly as resistant
  drug sensitivity of hog1Δ mutant compared to WT: hyper-resistance
  drug sensitivity of pbs2Δ mutant compared to WT: hyper-resistance
  drug sensitivity of pka1Δ mutant compared to WT: nearly as resistant
  drug sensitivity of skn7Δ mutant compared to WT: higher resistance
  drug sensitivity of ssk1Δ mutant compared to WT: hyper-resistance
  drug sensitivity of ssk2Δ mutant compared to WT: hyper-resistance
  drug sensitivity of tco2Δ mutant compared to WT: higher resistance
[2]; compared to single mutants
  drug sensitivity of hog1Δ cac1Δ double mutant: hypersensitivity; also recorded: hypersensitive
[2]; pka1Δ pka2Δ, H99 background
  drug sensitivity of pka1Δ pka2Δ double mutant compared to WT: nearly as resistant
[2]; pka2Δ, H99 background
  drug sensitivity of pka2Δ mutant compared to WT: nearly as resistant

## CC(=O)N1CCN(c2ccc(OCC3COC(Cn4ccnc4)(c4ccc(Cl)cc4Cl)O3)cc2)CC1 (centres unmarked) [ketoconazole]
[2]; compared to single mutants
  drug sensitivity of hog1Δ cac1Δ double mutant: hypersensitivity; also recorded: hypersensitive
[2]; H99 background
  drug sensitivity of hog1Δ mutant compared to WT: hyper-resistance
  drug sensitivity of pbs2Δ mutant compared to WT: hyper-resistance
  drug sensitivity of skn7Δ mutant compared to WT: higher resistance
  drug sensitivity of ssk1Δ mutant compared to WT: hyper-resistance
  drug sensitivity of ssk2Δ mutant compared to WT: hyper-resistance
  drug sensitivity of tco2Δ mutant compared to WT: higher resistance

Source: US9017956B2, “Use of the genes in the Hog, Ras and cAMP pathway for treatment of fungal infection” (Nutrex Technology Co., Ltd., priority 2009, dated 2015)
